Data as given in US20190127381A1, “SUBSTITUTED FUSED PYRIMIDINONE COMPOUNDS” (TORRENT PHARMACEUTICALS LIMITED, priority 2016, published 2019).

Experiments:
[1] = target: T1, purified recombinant human PI3K enzyme δ (Homo sapiens, UniProt O00329); assay: Inhibition of PI3-Kinase enzymatic activity (HTRF enzyme assay), δ; format: biochemical; details: 1 μM compound; PI3K δ 50 ng/well; PIP2 10 μM; ATP 200 μM; read-out: Percentage inhibition of PI3K activity, δ
T1 construct: purchased Invitrogen, USA
T1 sequence (O00329 whole entry): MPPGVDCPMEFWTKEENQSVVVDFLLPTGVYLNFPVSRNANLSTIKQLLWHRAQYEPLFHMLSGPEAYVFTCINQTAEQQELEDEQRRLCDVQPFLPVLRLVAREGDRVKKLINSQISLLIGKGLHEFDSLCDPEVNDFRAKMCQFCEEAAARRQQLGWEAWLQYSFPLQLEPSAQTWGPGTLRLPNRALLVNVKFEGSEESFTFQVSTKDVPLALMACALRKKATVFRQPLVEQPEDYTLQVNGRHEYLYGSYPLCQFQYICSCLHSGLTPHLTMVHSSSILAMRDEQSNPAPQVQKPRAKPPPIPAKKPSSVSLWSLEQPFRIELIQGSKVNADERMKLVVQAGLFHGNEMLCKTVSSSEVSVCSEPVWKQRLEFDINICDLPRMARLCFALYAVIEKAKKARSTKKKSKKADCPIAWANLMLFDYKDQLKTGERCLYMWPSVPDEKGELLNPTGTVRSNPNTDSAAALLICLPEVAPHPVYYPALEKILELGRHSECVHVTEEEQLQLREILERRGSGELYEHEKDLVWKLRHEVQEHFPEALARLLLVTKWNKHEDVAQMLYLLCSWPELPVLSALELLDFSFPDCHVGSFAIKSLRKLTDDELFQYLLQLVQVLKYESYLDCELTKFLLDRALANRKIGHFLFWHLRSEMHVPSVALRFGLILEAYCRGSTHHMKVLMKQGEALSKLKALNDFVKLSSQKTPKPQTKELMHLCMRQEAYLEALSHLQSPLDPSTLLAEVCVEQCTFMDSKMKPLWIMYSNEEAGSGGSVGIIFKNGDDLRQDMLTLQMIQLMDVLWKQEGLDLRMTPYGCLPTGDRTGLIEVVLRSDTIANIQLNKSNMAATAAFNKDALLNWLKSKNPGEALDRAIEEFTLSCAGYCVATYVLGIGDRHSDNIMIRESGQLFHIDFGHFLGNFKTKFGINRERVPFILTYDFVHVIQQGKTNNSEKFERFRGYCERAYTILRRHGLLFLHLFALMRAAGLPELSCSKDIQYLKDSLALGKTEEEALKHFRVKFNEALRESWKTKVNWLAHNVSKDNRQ
T1 sequence (P27986 whole entry partner): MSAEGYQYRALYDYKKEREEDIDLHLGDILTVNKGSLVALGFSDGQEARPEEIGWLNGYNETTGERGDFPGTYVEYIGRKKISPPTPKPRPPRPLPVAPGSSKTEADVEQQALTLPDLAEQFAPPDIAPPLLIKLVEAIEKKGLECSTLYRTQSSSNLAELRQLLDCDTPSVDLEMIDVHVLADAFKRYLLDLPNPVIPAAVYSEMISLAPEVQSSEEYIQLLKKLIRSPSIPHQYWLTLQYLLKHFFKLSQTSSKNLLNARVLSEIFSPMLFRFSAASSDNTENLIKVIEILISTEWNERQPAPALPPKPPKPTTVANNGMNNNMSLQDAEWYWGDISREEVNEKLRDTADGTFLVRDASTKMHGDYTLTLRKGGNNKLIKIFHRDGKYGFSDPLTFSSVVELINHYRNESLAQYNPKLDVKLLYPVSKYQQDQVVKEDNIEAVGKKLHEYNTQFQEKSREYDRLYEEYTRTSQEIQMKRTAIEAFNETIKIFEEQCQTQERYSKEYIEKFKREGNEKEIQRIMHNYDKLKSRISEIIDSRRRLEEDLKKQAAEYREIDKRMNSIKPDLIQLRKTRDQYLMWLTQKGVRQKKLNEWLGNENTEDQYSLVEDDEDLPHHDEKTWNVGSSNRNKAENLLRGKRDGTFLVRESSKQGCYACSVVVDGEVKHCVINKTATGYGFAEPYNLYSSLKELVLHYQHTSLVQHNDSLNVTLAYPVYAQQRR
Method: (§1) Inhibition of PI3-Kinase enzymatic activity was determined using a homogeneous time-resolved fluorescence (HTRF) kit from Eurofins. 1 μM of Compounds of present invention were premixed with DMSO. The experiment was initiated by mixing 1.0% DMSO as vehicle/compounds with purified recombinant human PI3K enzyme {δ (50 ng/well); γ (100 ng/well)} (Invitrogen, USA) and substrate (PIP2, 10 μM) in the wells and incubation for 15 min at room temperature. There after ATP was added (δ at 200 μM, and γ at 50 μM) in to the wells containing reaction mixture, followed by re-incubation for 30 minutes at room temperature. Reaction was terminated by addition of a stopping solution and was further incubated for 4 hours at room temperature before reading using Envision multimode reader (Perkin Elmer). Percentage inhibition of PI3K activity was calculated by determining ratio of specific europium 665 nm energy transfer signal to reference 615 nm signals.

[2] = target: T2, purified recombinant human PI3K enzyme γ (Homo sapiens, UniProt P48736); assay: Inhibition of PI3-Kinase enzymatic activity (HTRF enzyme assay), γ; format: biochemical; details: 1 μM compound; PI3K γ 100 ng/well; PIP2 10 μM; ATP 50 μM; read-out: Percentage inhibition of PI3K activity, γ
T2 construct: purchased Invitrogen, USA
T2 sequence (P48736 whole entry): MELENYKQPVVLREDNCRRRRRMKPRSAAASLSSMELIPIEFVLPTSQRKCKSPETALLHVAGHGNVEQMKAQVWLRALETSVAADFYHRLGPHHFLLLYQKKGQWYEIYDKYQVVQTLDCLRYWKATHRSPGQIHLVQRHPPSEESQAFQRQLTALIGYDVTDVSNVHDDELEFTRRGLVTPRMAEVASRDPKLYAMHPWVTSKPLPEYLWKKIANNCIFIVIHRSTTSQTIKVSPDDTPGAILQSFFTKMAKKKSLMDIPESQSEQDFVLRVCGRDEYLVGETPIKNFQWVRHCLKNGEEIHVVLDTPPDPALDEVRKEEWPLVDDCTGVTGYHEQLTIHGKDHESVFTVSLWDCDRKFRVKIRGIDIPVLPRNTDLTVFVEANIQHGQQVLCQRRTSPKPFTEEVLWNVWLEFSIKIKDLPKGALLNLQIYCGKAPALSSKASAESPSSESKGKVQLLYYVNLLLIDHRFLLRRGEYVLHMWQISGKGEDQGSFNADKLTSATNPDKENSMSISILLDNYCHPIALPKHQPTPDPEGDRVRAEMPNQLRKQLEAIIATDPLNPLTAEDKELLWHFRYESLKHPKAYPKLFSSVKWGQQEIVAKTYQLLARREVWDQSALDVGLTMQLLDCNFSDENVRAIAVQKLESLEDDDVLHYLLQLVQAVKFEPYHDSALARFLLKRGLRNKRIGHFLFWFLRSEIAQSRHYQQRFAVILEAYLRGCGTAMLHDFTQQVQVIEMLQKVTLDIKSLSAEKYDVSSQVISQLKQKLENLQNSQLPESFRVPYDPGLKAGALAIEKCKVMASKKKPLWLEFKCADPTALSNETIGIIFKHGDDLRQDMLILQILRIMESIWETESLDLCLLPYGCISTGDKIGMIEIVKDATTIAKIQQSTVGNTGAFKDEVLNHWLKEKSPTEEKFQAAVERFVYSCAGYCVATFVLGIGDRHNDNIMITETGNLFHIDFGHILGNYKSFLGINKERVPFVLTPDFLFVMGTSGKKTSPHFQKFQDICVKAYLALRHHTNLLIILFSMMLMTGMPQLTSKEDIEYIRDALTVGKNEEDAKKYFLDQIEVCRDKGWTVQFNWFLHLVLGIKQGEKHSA
Method: as §1

| inhibition at 1 µM [1] [%] | inhibition at 1 µM [2] [%] | SMILES |
| --- | --- | --- |
| 80 to 100 | 60 to 80 | Cc1cccc2nc(Cn3nc(-c4ccc(O)c5c4CC(C)(C)O5)c4c(N)ncnc43)n(-n3cccn3)c(=O)c12 [compound 7, 2-{[4-amino-3-(7-hydroxy-2,2-dimethyl-2,3-dihydro-1-benzofuran-4-yl)-1H-pyrazolo[3,4-d]pyrimidin-1-yl]methyl}-5-methyl-3-(1H-pyrazol-1-yl)quinazolin-4(3H)-one] |
| 80 to 100 | 60 to 80 | CC1(C)Cc2c(-c3nn(Cc4nc5cccc(-c6cccnc6)c5c(=O)n4-n4cccc4)c4ncnc(N)c34)ccc(O)c2O1 [compound 10, 2-{[4-amino-3-(7-hydroxy-2,2-dimethyl-2,3-dihydro-1-benzofuran-4-yl)-1H-pyrazolo[3,4-d]pyrimidin-1-yl]methyl}-5-(pyridin-3-yl)-3-(1H-pyrrol-1-yl)quinazolin-4(3H)-one] |
| 80 to 100 | 60 to 80 | Cc1cc(C)n(-n2c(Cn3nc(-c4ccc(O)c5c4CC(C)(C)O5)c4c(N)ncnc43)nc3cccc(C)c3c2=O)n1 [compound 11, 2-{[4-amino-3-(7-hydroxy-2,2-dimethyl-2,3-dihydro-1-benzofuran-4-yl)-1H-pyrazolo[3,4-d]pyrimidin-1-yl]methyl}-3-(3,5-dimethyl-1H-pyrazol-1-yl)-5-methylquinazolin-4(3H)-one] |
| 80 to 100 | 80 to 100 | Cc1cc(C)n(-n2c(Cn3nc(-c4ccc(O)c5c4CC(C)(C)O5)c4c(N)ncnc43)nc3cccc(Cl)c3c2=O)n1 [compound 12, 2-{[4-amino-3-(7-hydroxy-2,2-dimethyl-2,3-dihydro-1-benzofuran-4-yl)-1H-pyrazolo[3,4-d]pyrimidin-1-yl]methyl}-5-chloro-3-(3,5-dimethyl-1H-pyrazol-1-yl)quinazolin-4(3H)-one] |
| 80 to 100 | 80 to 100 | CC1(C)Cc2c(-c3nn(Cc4nc5cccc(Br)c5c(=O)n4C4(c5ccccc5)CC4)c4ncnc(N)c34)ccc(O)c2O1 [compound 13, 2-{[4-amino-3-(7-hydroxy-2,2-dimethyl-2,3-dihydro-1-benzofuran-4-yl)-1H-pyrazolo[3,4-d]pyrimidin-1-yl]methyl}-5-bromo-3-(1-phenylcyclopropyl)quinazolin-4(3H)-one] |
| 80 to 100 | 80 to 100 | CC1(C)Cc2c(-c3nn(Cc4nc5cccc(-c6ccsc6)c5c(=O)n4-n4cccc4)c4ncnc(N)c34)ccc(O)c2O1 [compound 14, 2-{[4-amino-3-(7-hydroxy-2,2-dimethyl-2,3-dihydro-1-benzofuran-4-yl)-1H-pyrazolo[3,4-d]pyrimidin-1-yl]methyl}-3-(1H-pyrrol-1-yl)-5-(thiophen-3-yl)quinazolin-4(3H)-one] |
| 80 to 100 | 80 to 100 | Cc1ccc(-c2cccc3nc(Cn4nc(-c5ccc(O)c6c5CC(C)(C)O6)c5c(N)ncnc54)n(-n4cccc4)c(=O)c23)o1 [compound 15, 2-{[4-amino-3-(7-hydroxy-2,2-dimethyl-2,3-dihydro-1-benzofuran-4-yl)-1H-pyrazolo[3,4-d]pyrimidin-1-yl]methyl}-5-(5-methylfuran-2-yl)-3-(1H-pyrrol-1-yl)quinazolin-4(3H)-one] |
| 80 to 100 | 60 to 80 | CC1(C)Cc2c(-c3nn(Cc4nc5cccc(-c6cccnc6)c5c(=O)n4C4(c5ccccc5)CC4)c4ncnc(N)c34)ccc(O)c2O1 [compound 16, 2-{[4-amino-3-(7-hydroxy-2,2-dimethyl-2,3-dihydro-1-benzofuran-4-yl)-1H-pyrazolo[3,4-d]pyrimidin-1-yl]methyl}-3-(1-phenylcyclopropyl)-5-(pyridin-3-yl)quinazolin-4(3H)-one] |
| 60 to 80 | 60 to 80 | Cc1ccc(-c2cccc3nc(Cn4nc(-c5ccc(O)c6c5CC(C)(C)O6)c5c(N)ncnc54)n(C4(c5ccccc5)CC4)c(=O)c23)o1 [compound 17, 2-{[4-amino-3-(7-hydroxy-2,2-dimethyl-2,3-dihydro-1-benzofuran-4-yl)-1H-pyrazolo[3,4-d]pyrimidin-1-yl]methyl}-5-(5-methylfuran-2-yl)-3-(1-phenylcyclopropyl)quinazolin-4(3H)-one] |
| 80 to 100 | 60 to 80 | CC1(C)Cc2c(-c3nn(Cc4nc5cccc(-c6ccncc6)c5c(=O)n4-n4cccc4)c4ncnc(N)c34)ccc(O)c2O1 [compound 18, 2-{[4-amino-3-(7-hydroxy-2,2-dimethyl-2,3-dihydro-1-benzofuran-4-yl)-1H-pyrazolo[3,4-d]pyrimidin-1-yl]methyl}-5-(pyridin-4-yl)-3-(1H-pyrrol-1-yl)quinazolin-4(3H)-one] |
| 80 to 100 | 80 to 100 | CC1(C)Cc2c(-c3nn(Cc4nc5cccc(C#CCO)c5c(=O)n4-n4cccc4)c4ncnc(N)c34)ccc(O)c2O1 [compound 19, 2-{[4-amino-3-(7-hydroxy-2,2-dimethyl-2,3-dihydro-1-benzofuran-4-yl)-1H-pyrazolo[3,4-d]pyrimidin-1-yl]methyl}-5-(3-hydroxyprop-1-yn-1-yl)-3-(1H-pyrrol-1-yl)quinazolin-4(3H)-one] |
| 80 to 100 | 80 to 100 | C#Cc1cccc2nc(Cn3nc(-c4ccc(O)c5c4CC(C)(C)O5)c4c(N)ncnc43)n(-n3cccc3)c(=O)c12 [compound 20, 2-{[4-amino-3-(7-hydroxy-2,2-dimethyl-2,3-dihydro-1-benzofuran-4-yl)-1H-pyrazolo[3,4-d]pyrimidin-1-yl]methyl}-5-ethynyl-3-(1H-pyrrol-1-yl)quinazolin-4(3H)-one] |
| 80 to 100 | 60 to 80 | CC1(C)Cc2c(-c3nn(Cc4nc5cccc(-c6ccncc6)c5c(=O)n4C4(c5ccccc5)CC4)c4ncnc(N)c34)ccc(O)c2O1 [compound 21, 2-{[4-amino-3-(7-hydroxy-2,2-dimethyl-2,3-dihydro-1-benzofuran-4-yl)-1H-pyrazolo[3,4-d]pyrimidin-1-yl]methyl}-3-(1-phenylcyclopropyl)-5-(pyridin-4-yl)quinazolin-4(3H)-one] |
| 80 to 100 | 60 to 80 | Cn1nccc1-c1cccc2nc(Cn3nc(-c4ccc(O)c5c4CC(C)(C)O5)c4c(N)ncnc43)n(-n3cccc3)c(=O)c12 [compound 22, 2-{[4-amino-3-(7-hydroxy-2,2-dimethyl-2,3-dihydro-1-benzofuran-4-yl)-1H-pyrazolo[3,4-d]pyrimidin-1-yl]methyl}-5-(1-methyl-1H-pyrazol-5-yl)-3-(1H-pyrrol-1-yl)quinazolin-4(3H)-one] |
| 80 to 100 | 80 to 100 | CC1(C)Cc2c(-c3nn(Cc4nc5cccc(-c6ccoc6)c5c(=O)n4-n4cccc4)c4ncnc(N)c34)ccc(O)c2O1 [compound 23, 2-{[4-amino-3-(7-hydroxy-2,2-dimethyl-2,3-dihydro-1-benzofuran-4-yl)-1H-pyrazolo[3,4-d]pyrimidin-1-yl]methyl}-5-(furan-3-yl)-3-(1H-pyrrol-1-yl)quinazolin-4(3H)-one] |
| 80 to 100 | 80 to 100 | CC1(C)Cc2c(-c3nn(Cc4nc5cccc(C#CCO)c5c(=O)n4C4(c5ccccc5)CC4)c4ncnc(N)c34)ccc(O)c2O1 [compound 24, 2-{[4-amino-3-(7-hydroxy-2,2-dimethyl-2,3-dihydro-1-benzofuran-4-yl)-1H-pyrazolo[3,4-d]pyrimidin-1-yl]methyl}-5-(3-hydroxyprop-1-yn-1-yl)-3-(1-phenylcyclopropyl)quinazolin-4(3H)-one] |
| 80 to 100 | 80 to 100 | CC1(C)Cc2c(-c3nn(Cc4nc5cccc(-c6ccsc6)c5c(=O)n4C4(c5ccccc5)CC4)c4ncnc(N)c34)ccc(O)c2O1 [compound 25, 2-{[4-amino-3-(7-hydroxy-2,2-dimethyl-2,3-dihydro-1-benzofuran-4-yl)-1H-pyrazolo[3,4-d]pyrimidin-1-yl]methyl}-3-(1-phenylcyclopropyl)-5-(thiophen-3-yl)quinazolin-4(3H)-one] |
| 80 to 100 | 40 to 60 | CC1(C)Cc2c(-c3nn(Cc4nc5cccc(F)c5c(=O)n4C4(c5ccccc5)CC4)c4ncnc(N)c34)ccc(O)c2O1 [compound 26, 2-{[4-amino-3-(7-hydroxy-2,2-dimethyl-2,3-dihydro-1-benzofuran-4-yl)-1H-pyrazolo[3,4-d]pyrimidin-1-yl]methyl}-5-fluoro-3-(1-phenylcyclopropyl)quinazolin-4(3H)-one] |
| 80 to 100 | 80 to 100 | CC(=O)NCC#Cc1cccc2nc(Cn3nc(-c4ccc(O)c5c4CC(C)(C)O5)c4c(N)ncnc43)n(-n3cccc3)c(=O)c12 [compound 28, N-{3-[2-{[4-amino-3-(7-hydroxy-2,2-dimethyl-2,3-dihydro-1-benzofuran-4-yl)-1H-pyrazolo[3,4-d]pyrimidin-1-yl]methyl}-4-oxo-3-(1H-pyrrol-1-yl)-3,4-dihydroquinazolin-5-yl]prop-2-yn-1-yl}acetamide] |
| 80 to 100 | 80 to 100 | CC1(C)Cc2c(-c3nn(Cc4nc5cccc(C#CCNC(=O)C6CC6)c5c(=O)n4-n4cccc4)c4ncnc(N)c34)ccc(O)c2O1 [compound 29, N-{3-[2-{[4-amino-3-(7-hydroxy-2,2-dimethyl-2,3-dihydro-1-benzofuran-4-yl)-1H-pyrazolo[3,4-d]pyrimidin-1-yl]methyl}-4-oxo-3-(1H-pyrrol-1-yl)-3,4-dihydroquinazolin-5-yl]prop-2-yn-1-yl}cyclopropanecarboxamide] |
